Key:
[1] = quantification of drug concentration in plasma of mice; format: in vivo, mouse; conditions: oral gavage
Description: Solid compounds were solubilized in PEG400/Ethanol/Solutol/Water solution (36.3/9.1/4.6/50%). Compounds were given daily by oral gavage, 5 ml kg^−1, at doses ranging from 0.1 to 100 μmol kg^−1 of body weight for 4 days. Animals were terminated 3 h after the last dose.
At termination, the whole-blood volume was drawn from isoflurane-anesthetized mice via an incision in the carotid artery into EDTA blood tubes (S-Monovette®, EDTA KE/1.3 mL, Sarstedt, Nümbrecht, Germany or BD Microtainers®, Benton, Dickinson and Company, Franklin Lakes, New Jersey, USA). Blood samples were placed on ice and centrifuged within an hour (15 min, 2500 × g, 4 °C or 5 min, 16000 × g, 4 °C). The plasma was then dispensed in separate tubes and kept at −80 °C for later analysis of compound concentration and TG levels. For the analysis of intestinal Abca1 transcript levels, a 3–5-mm long segment of the duodenum was excised and cleared from any gut contents. Tissues were instantly snap frozen in liquid nitrogen and stored at −80 °C.
About 25 µL of plasma was precipitated with 150 µL of cold acetonitrile containing 0.2% formic acid. After vortexing followed by 20 min of centrifugation at 3220 × g and 4 °C, the supernatant was diluted 1:1 with 0.2% formic acid (aqueous phase). […]

LXRα/SRC1 = molecular target: T1, LXRα/SRC1 (Homo sapiens, UniProt Q13133); experiment: SPR cofactor recruitment, LXRα LBD binding to immobilized SRC1 coactivator peptide; conditions: LXRα LBD 0.02–10 µM equilibrated with compound (50 μM)
T1 construct: Human his-tagged LXRα LBD (200-447); His tag; made in house; host or cells: Escherichia coli BL21(DE3)
T1 sequence (Q13133 200-447): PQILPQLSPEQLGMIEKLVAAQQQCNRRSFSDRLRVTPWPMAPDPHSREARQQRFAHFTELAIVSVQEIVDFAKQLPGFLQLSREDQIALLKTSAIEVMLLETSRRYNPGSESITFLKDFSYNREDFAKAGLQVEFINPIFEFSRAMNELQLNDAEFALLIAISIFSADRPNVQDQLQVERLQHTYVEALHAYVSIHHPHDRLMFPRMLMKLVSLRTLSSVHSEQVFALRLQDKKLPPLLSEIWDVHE
T1 sequence (Q15788 with tags, fused parts or gaps partner limits assumed): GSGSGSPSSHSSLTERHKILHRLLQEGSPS
Description: (§1) The peptides carried an N-terminal biotin for surface immobilization on a Xantec NID200M Sensor Chip (NTA-derivatized carboxymethyldextran hydrogel, XanTec bioanalytics GmbH) preloaded with Ni^2+. […] LXRα and LXRβ LBD proteins were serially diluted in SPR running buffer (10 mM HEPES, 150 mM NaCl, and 0.05% Tween 20, pH 7.4) to a broad range of concentrations (0.02–10 µM) and equilibrated with tested compound (50 μM) prior to the sample injection over a modified biosensor surface. LXR-ligand complexes were injected in quick succession for 120 s over immobilized cofactor peptides and reference surfaces along with blank samples followed by 900 s of dissociation. The binding level at equilibrium was monitored for all samples, including the reference sample that contained DMSO at equal amount as tested compounds. All data were normalized to this reference sample in order to quantify the effects on peptide binding without bias by receptor instability. The surface was regenerated with 0.5% (w/v) SDS after each injection. Binding responses in the steady-state region of the sensorgrams were plotted against LXR LBD concentration to determine the overall equilibrium-binding affinity by fitting the data to nonlinear regression (Prism 8; GraphPad).

LXRβ LBD = molecular target: T2, LXRβ LBD (Homo sapiens, UniProt P55055); conditions: LXRβ over LXRα binding
T2 sequence (P55055 215-460 limits assumed): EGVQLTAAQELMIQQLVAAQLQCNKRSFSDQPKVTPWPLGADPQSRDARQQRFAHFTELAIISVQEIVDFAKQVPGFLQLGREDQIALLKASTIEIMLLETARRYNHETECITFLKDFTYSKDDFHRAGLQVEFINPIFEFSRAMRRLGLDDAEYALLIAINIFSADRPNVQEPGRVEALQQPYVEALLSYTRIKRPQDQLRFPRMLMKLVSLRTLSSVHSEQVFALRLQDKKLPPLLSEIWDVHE
Description: The compounds were run in triplicate (binding assay) or in quadruplicate (transactivation assay). Standard deviations are indicated for individual experiments run more than once.

LXRα/NCOR1 = molecular target: T3, LXRα/NCOR1 (Homo sapiens, UniProt Q13133); experiment: SPR cofactor recruitment, LXRα LBD binding to immobilized NCOR1 corepressor peptide
T3 construct: Human his-tagged LXRα LBD (200-447); His tag; made in house; host or cells: Escherichia coli BL21(DE3)
T3 sequence (Q13133 200-447): T1 sequence (Q13133 200-447)
T3 sequence (O75376 with tags, fused parts or gaps partner limits assumed): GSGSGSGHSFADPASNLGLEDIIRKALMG
Description: as §1

LXRβ/SRC1 = molecular target: T4, LXRβ/SRC1 (Homo sapiens, UniProt P55055); experiment: SPR cofactor recruitment, LXRβ LBD binding to immobilized SRC1 coactivator peptide; conditions: LXRβ LBD 0.02–10 µM equilibrated with compound (50 μM), immobilized SRC1 peptide; read-out: LXRβ/SRC1 Kd
T4 construct: human his-tagged LXRβ LBD (216-461); His tag; made in house; host or cells: Escherichia coli BL21(DE3)
T4 sequence (P55055 215-460 limits assumed): T2 sequence (P55055 215-460 limits assumed)
T4 sequence (Q15788 with tags, fused parts or gaps partner limits assumed): T1 sequence (Q15788 with tags, fused parts or gaps partner limits assumed)
Description: as §1

LXRβ/NCOR1 = molecular target: T5, LXRβ/NCOR1 (Homo sapiens, UniProt P55055); experiment: SPR cofactor recruitment, LXRβ LBD binding to immobilized NCOR1 corepressor peptide
T5 construct: human his-tagged LXRβ LBD (216-461); His tag; made in house; host or cells: Escherichia coli BL21(DE3)
T5 sequence (P55055 215-460 limits assumed): T2 sequence (P55055 215-460 limits assumed)
Description: as §1

ABCA1 mRNA = experiment: human whole blood assay, ABCA1 mRNA; format: cell-based; conditions: preliminary results, reply to reviewers
LXR KO macrophages = experiment: LXR target gene expression in LXR KO macrophages; format: cell-based; conditions: reply to reviewers
plasma triglycerides = tested on: plasma triglycerides; design: method as in van der Hoorn et al. 2011; conditions: AZ876 high dose 20 µmol·kg−1·day−1, GW3965 at a similar dose; ref van der Hoorn et al. 2011; cited from earlier work

Structure (SMILES): CN(C)C(=O)c1cnc(N2CC[C@@H](CNC3=C(c4ccccc4)S(=O)(=O)N(C(C)(C)C)C3=O)C2)c(Cl)c1 [AZ5]
- systemic exposure [1]: too low

Structure (SMILES): CC(C)N1C(=O)C(NC2CCN(c3ncc(CC(=O)O)cc3Cl)CC2)=C(c2ccccc2)S1(=O)=O [AZ6]
- Kd (LXRα/SRC1): 1.5 µM

Structure (SMILES): CC(C)(C)N1C(=O)C(Cc2ccccc2)=C(NC2CCN(c3ncc(CC(=O)O)cc3Cl)CC2)C1=O [AZ7]
- LXRβ binding selectivity (LXRβ LBD): more than tenfold

Structure (SMILES): CC(C)(O)c1cn(-c2ccc(-c3cc(F)c(CO)c(S(C)(=O)=O)c3)cc2F)c(C(C)(C)c2c(Cl)cccc2Cl)n1 [BMS-852927]
- effect on the LXRα/NCOR1 interaction (LXRα/NCOR1): enhanced the interaction
- Kd (LXRβ/SRC1): 19.8 µM
- effect on the LXRβ/NCOR1 interaction (LXRβ/NCOR1): enhanced the interaction
- ABCA1 mRNA levels in human whole blood assay (ABCA1 mRNA): induces ABCA1 mRNA levels, however with lower efficiency than full
- LXR target gene expression in LXR KO macrophages (LXR KO macrophages): does not induce LXR

Structure (SMILES): O=C(O)Cc1cccc(OCCCN(Cc2cccc(C(F)(F)F)c2Cl)CC(c2ccccc2)c2ccccc2)c1 [GW3965, reference compound]
- increase of plasma triglyceride levels (plasma triglycerides): 70%

From paper PMC6874530, “Structural analysis identifies an escape route from the adverse lipogenic effects of liver X receptor ligands” (Communications Biology, 2019)
